# How the values were obtained:
# [1] = tested on: rat brain homogenate (lipid peroxide production); assay: Antioxidant activity test (rat brain homogenate autoxidation test); format: biochemical; conditions: lipid peroxide production suppression, 2 hours at 37 degrees Celsius, thiobarbituric acid method
# Method: The cerebrum was removed from 7 to 11 week old male Wistar rats (Nihon Ikagaku) or male Sprague-Dawley (IGS) rats (Charles River), physiological saline was added, and a 20% brain homogenate was made. 4 μl of test compound dissolved in DMSO was mixed with 200 μl of brain homogenate and 200 μl of PBS (−) (diluted 100 times), incubated for 2 hours at 37 degrees Celsius and shaken at a rate of 160 times per minute, thereby producing a lipid peroxide. After cooling for 5 minutes, the produced lipid peroxide was measured as a thiobarbituric acid reactive substance by using the thiobarbituric acid method. Briefly, 100 μl of 8.1% dodecyl sulfate, 750 μl of 20% acetic acid adjusted to a pH of 3.5, and 750 μl of 0.8% thiobarbituric acid were added, and boiled for 60 minutes, and then cooled. Next, 500 μl of distilled water and 2.5 ml of N-butanol/pyridine (15:1) were added and after 5 minutes of shaking, the supernatant was taken after centrifuging for 10 minutes at 3000 rpm, and the absorbance at 532 nm was measured. The number of examples was 2 examples. Calculation was done of the (absorbance at each concentration/absorbance of a solvent control)×100, and after logit transformation, the lipid peroxide production suppression effect (IC 50 value) was calculated as an indicator of antioxidant activity.
# [2] = tested on: astrocyte/neuron co-culture; assay: Brain cell damage induced by hydrogen peroxide treatment (LDH assay); format: cell-based; conditions: Rattus norvegicus, hydrogen peroxide (250 μM), 24 hours, read-out: 50% inhibition concentration against cell damage in entire co-culture system (EC50 value)
# Summary of the method: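 Rat primary cortical/hippocampal co-cultures were used 8–9 days after plating neurons (E18.5) on neonatal astrocyte layers. Test substance was added together with 250 μM hydrogen peroxide, and cells were analysed 24 h later. LDH release gave EC50 for protection of the whole co-culture, and microscopy of neuronal cell bodies and processes gave neuroprotection.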
# [3] = tested on: neurons in astrocyte/neuron co-culture; assay: Brain cell damage induced by hydrogen peroxide treatment (neuroprotective effect, microscope observation); format: cell-based; conditions: Rattus norvegicus, hydrogen peroxide (250 μM), 24 hours, read-out: Concentration for complete inhibition of neuronal death
# Method: The brain was removed from 1 to 2 day old Wistar rats (Charles River) or Sprague-Dawley (IGS) rats (Charles River), and the cerebral cortex including the hippocampus was excised under ice cooling. After this cerebral cortex was minced, it was digested with papain solution (9 U/ml) containing DNase I (30 U/ml) at 37 degrees Celsius for 15 minutes, dispersing the cells. After further carrying out mechanical dispersing by pipetting, it was passed through a cell strainer with a pore size of 70 μm, and a cell suspension was obtained. Cells derived from 1.4 cerebra were seeded on 150 mm tissue culture dish (Iwaki Glass), and primary culture was carried out at 37 degrees Celsius and 5% CO2 using a D-MEM medium (Invitrogen) containing 10% heat-inactivated fetal calf serum (JRH). One day after the start of the culture, the nonadherent cells were removed, and the primary cultured astrocytes were obtained by continuing the culture for 4 to 5 further days. The primary cultured astrocytes were dispersed by trypsin treating, suspended in cryopreservation solution, and cryopreserved.
# After thawing the cryopreserved primary cultured astrocytes, they were seeded on tissue culture plates (Iwaki Glass), and a confluent astrocyte layer was produced by a further 7 days of secondary culture using a D-MEM medium containing 10% heat-inactivated fetal calf serum. Neurons to be used in the co-culture with the astrocyte layer were obtained from fetal rat cerebrum. Briefly, brains were removed from Wistar rats (Charles River) or Sprague-Dawley (IGS) rats (Charles River) of embryonic age 18.5 days, and the cerebral cortex including the hippocampus was excised under ice cooling. After this cerebral cortex was minced, it was digested in papain solution (9 U/ml) containing DNase I (30 U/ml) at 37 degrees Celsius for 15 minutes, dispersing the cells. After further carrying out mechanical dispersing by pipetting, it was passed through a cell strainer with a pore size of 70 μm, and a cell suspension was obtained. This cell suspension was plated at a density of 1.3×10^5 cells/cm^2 on the astrocyte layer, and a co-culture was carried out using D-MEM/F-12 medium (Invitrogen) containing 10% heat-inactivated fetal calf serum and 5% horse serum (Invitrogen). 2 days after the start of the co-culture, cells were treated for 24 hours with 10 μM cytosine arabinoside in order to suppress the excessive cell proliferation of microglia and the like. 8 to 9 days after the start of the co-culture, cells were used for the test. Additionally, using one portion of the cells, immunofluorescent staining and nuclear staining was carried out with astrocyte recognizing antibodies (anti-GFAP) and neuron recognizing antibodies (anti-MAP2), in order to confirm that the present culture system is a co-culture system of astrocytes and neurons.
# An astrocyte/neuron co-culture cultured on a 96 well plate was used in the test. A predetermined concentration of the test substance and hydrogen peroxide (250 μM) was simultaneously added to the cell culture in each well with continuing cultivation, and analysis was done 24 hours after this treatment. Using an LDH Cytotoxicity Detection Kit (Takara Bio), analysis was carried out in accordance with the included instruction manual, and the damage to the entire co-culture system by the hydrogen peroxide treatment and the protective effect (EC 50 value) of the test substance was evaluated. Further, the cell bodies and the neuronal processes of the neurons were observed by microscope, and the neuroprotective effect was evaluated.
SMILES,IC50 [1] [µM],EC50 [2] [µM],EC100 [3] [µM]
"CNc1nc(/C=C/c2ccc(OC)cc2)nc(N2CCOCC2)c1N [Compound 139, 5-amino-2-[2-(4-methoxyphenyl)vinyl]-4-methylamino-6-morpholinopyrimidine]",0.11,1.15,3
"COc1ccc(/C=C/c2nc(N(C)C)c(N)c(N(C)C)n2)cc1 [Compound 140, 5-amino-4,6-bis(dimethylamino)-2-[2-(4-methoxyphenyl)vinyl]pyrimidine]",0.55,5.15,10
"Nc1ccc(N2CCN(c3nc(N4CCOCC4)nc(N4CCOCC4)c3F)CC2)cc1 [Compound 146, 4-[4-(4-aminophenyl)piperazin-1-yl]-5-fluoro-2,6-dimorpholinopyrimidine]",1.91,0.96,3
"Cc1ccc(N2CCN(c3nc(N4CCNCC4)nc(N4CCOCC4)c3F)CC2)cc1 [Compound 149, 5-fluoro-4-[4-(4-methylphenyl)piperazin-1-yl]-6-morpholino-2-(1-piperazinyl)pyrimidine]",9.75,0.42,10
"COc1ccc(/C=C/c2nc(N3CCNCC3)c(N)c(N3CCOCC3)n2)cc1 [Compound 170, 5-amino-2-[2-(4-methoxyphenyl)vinyl]-4-morpholino-6-(1-piperazinyl)pyrimidine]",3.1,0.99,3
"COc1ccc(/C=C/c2nc(NCCN3CCNCC3)c(N)c(N3CCOCC3)n2)cc1 [Compound 173, 5-amino-2-[2-(4-methoxyphenyl)vinyl]-4-morpholino-6-[2-(1-piperazinyl)ethylamino]pyrimidine]",2.08,4.72,30
"COc1ccc(/C=C/c2nc(N3CCOCC3)c(N)c(N3CCN(CCN(C)C)CC3)n2)cc1 [Compound 175, 5-amino-2-[2-(4-methoxyphenyl)vinyl]-4-[4-(2-dimethylaminoethyl-piperazin-1-yl)]-6-morpholinopyrimidine]",2.08,3.24,10
"COc1ccc(/C=C/c2nc(N3CCOCC3)c(N)c(N3CCN(C(=O)CN)CC3)n2)cc1 [Compound 176, 5-amino-4-(4-aminomethylcarbonylpiperazin-1-yl)-2-[2-(4-methoxyphenyl)vinyl]-6-morpholinopyrimidine]",2.16,2.74,10
"COc1ccc(/C=C/c2nc(N3CCOCC3)c(N)c(N3CCC(N)CC3)n2)cc1 [Compound 196, 5-amino-4-(4-aminopiperidin-1-yl)-2-[2-(4-methoxyphenyl)vinyl]-6-morpholinopyrimidine]",2.73,3.78,10
"COc1ccc(/C=C/c2nc(NCC(=O)OC(C)(C)C)c(N)c(N3CCOCC3)n2)cc1 [Compound 197, 5-amino-4-(4-tert-butoxycarbonylmethylamino)-2-[2-(4-methoxyphenyl)vinyl]-6-morpholinopyrimidine]",0.99,0.55,3
"COc1ccc(/C=C/c2nc(N3CCOCC3)c(N)c(N(C)C3CCN(C)CC3)n2)cc1 [Compound 198, 5-amino-2-[2-(4-methoxyphenyl)vinyl]-4-[N-methyl-N-(1-methylpiperidin-4-yl)amino]-6-morpholinopyrimidine]",1.04,3.74,10
"COc1ccc(CCc2nc(N3CCNCC3)c(N)c(N3CCOCC3)n2)cc1 [Compound 199, 5-amino-2-[2-(4-methoxyphenyl)ethyl]-4-(1-piperazinyl)-6-morpholinopyrimidine]",8.12,3.05,10
"COc1ccc(/C=C/c2nc(N3CCOCC3)c(F)c(N3CCOCC3)n2)cc1 [Compound 216, 5-fluoro-2-[2-(4-methoxyphenyl)vinyl]-4,6-dimorpholinopyrimidine]",0.86,0.73,3

# Reference: patent US8563715B2, “Pyrimidine derivative having cell protecting effect and uses thereof” (Zenyaku Kogyo Kabushikikaisha, priority 2008, dated 2013)
